Source: patent US20050215601A1, “Therapeutic agent for rheumatic disease comprising benzamide derivative as active ingredient” (SANTEN PHARMACEUTICAL CO., LTD., priority 2002, published 2005)

Tested on: type II collagen-induced arthritis of rats
Assay: Effects on type II collagen-induced arthritis (hind paw volume)
Type: in vivo, rat
Details: rats (female) sensitized with bovine type II collagen; test compound 6 mg/kg orally immediately before, 7 and 14 days after primary sensitization; average of eight per group; FIG. 1
Description: 1) Effects on Type II Collagen-Induced Arthritis
Model of type II collagen-induced arthritis has been widely used as an animal model for evaluating effects of drugs on rheumatic diseases (Nature, 283, 666-668 (1980)). Anti-arthritic effects of the present compounds were evaluated and studied according to this model.
A solution of bovine joint cartilage-derived type II collagen in 0.05 N acetic acid (2 mg/ml) was mixed with Freund's incomplete adjuvant of the same volume to prepare an emulsion (final concentration: 1 mg/ml).
As a primary sensitization, this emulsion was injected intradermally into five sites on the back of each rat (female, seven weeks old, weight: approximately 130 to 160 g) at a dose of 100 μl (total 500 μl: corresponding to 500 μg of type II collagen per rat). Seven days after the primary sensitization, 100 μl of this emulsion was injected intradermally into a root of the rat tail again (secondary sensitization). 0.5 ml/kg of a test compound solution (the test compound was dissolved in a 5% carboxymethylcellulose solution as a vehicle) was orally administered immediately before the primary sensitization, 7 days after the primary sensitization and 14 days after the primary sensitization. The dosage of test compound was adjusted to 6 mg/kg. […]

Nc1ccccc1NC(=O)c1ccc(CNC(=O)COc2cccnc2)cc1 [Test compound 2, N-(2-aminophenyl)-4-[N-(pyridin-3 yl)oxyacetylaminomethyl]benzamide]
increase in hind paw volume: any increase in hind paw volume could not be found
